Patent publication US8470850B2, “Inhibitors of VEGF receptor and HGF receptor signalling” (MethylGene Inc., priority 2004, dated 2013)

Legend:
[1] = biological target: T1, VEGF receptor KDR (Homo sapiens, UniProt P35968); assay: In vitro receptor tyrosine kinase assay (DELFIA), VEGF receptor KDR; assay type: biochemical; settings: ATP 0.6 uM; enzyme 5 nM; read-out: VEGF (enz.) (IC50)
T1 construct: made in house; host or cells: Sf9 cells (Spodoptera frugiperda), recombinant baculovirus
Text: In the case of VEGF receptor KDR a 1.6-kb cDNA corresponding to the catalytic domain of VEGFR2 or KDR (Genbank accession number AF035121 amino acid 806 to 1356) was cloned into the Pst I site of the pDEST20 gateway vector (Invitrogen) for the production of a GST-tagged version of that enzyme.
The GST-VEGFR2806-1356 protein was expressed in Sf9 cells (Spodoptera frugiperda) upon infection with recombinant baculovirus construct.
The supernatant was loaded onto a GST-agarose column (Sigma) equilibrated with PBS pH 7.3. Following a four column volume (CV) wash with PBS pH 7.3+1% Triton X-100 and 4 CV wash with buffer B (50 mM Tris pH 8.0, 20% glycerol and 100 mM NaCl), bound proteins were step eluted with 5 CV of buffer B supplemented with 5 mM DTT and 15 mM glutathion. […] Final GST-VEGFR2806-1356 protein preparations concentrations were about 0.7 mg/ml with purity approximating 70%.

[2] = biological target: TPR-MET fusion protein (MNNGHOS cell line) (Homo sapiens, UniProt P08581); assay: C-Met phosphorylation cell-based assay; settings: read-out: C-Met cell-based Y1230-34-35 tpr-met inhibition (IC50); MNNGHOS cells; compounds 3 hours prior to cell lysis
Procedure: This test measures the ability of compounds to inhibit HGF stimulated auto-phosphorylation of the c-Met/HGF receptor itself in a whole cell system.
MNNGHOS cell line expressing TPR-MET fusion protein were purchased from ATCC.
Inhibitor of c-Met formulated as 30 mM stocks in DMSO. For MNNGHOS treatments, cells, compounds were added to tissue culture media at indicated doses for 3 hours prior to cell lysis.
Lysate were separated on 5-20% PAGE-SDS and immunoblots were performed using Immobilon P polyvinylidene difluoride membranes (Amersham) according to the manufacturer's instructions for handling. The blots were washed in Tris-buffered saline with 0.1% Tween 20 detergent (TBST). […] Signal was quantitated by densitometry on Alpha-Imager.

[3] = biological target: recombinant human c-Met/HGF receptor (Homo sapiens, UniProt P08581); assay: In vitro receptor tyrosine kinase assay (DELFIA), c-Met/HGF receptor; settings: read-out: C-Met (enz.) (IC50); ATP 10 uM; enzyme 25 nM
Text: These tests measure the ability of compounds to inhibit the enzymatic activity of recombinant human c-Met/HGF receptor and VEGF receptor enzymatic activity.
This construct was used to generate recombinant baculovirus using the Bac-N-Blue™ system according to the manucfacturer's instructions (Invitrogen)
The c-Met IC protein was expressed in Hi-5 cells (Trichoplusia Ni) upon infection with recombinant baculovirus construct. Briefly, Hi-5 cells grown in suspension and maintained in serum-free medium (Sf900 II supplemented with gentamycin) at a cell density of about 2×10^6 cells/ml were infected with the abovementioned viruses at a multiplicity of infection (MOI) of 0.2 during 72 hours at 27° C. with agitation at 120 rpm on a rotary shaker. […] Cell pellets were frozen at −80° C. until purification was performed.
All steps described in cell extraction and purification were performed at 4° C. Frozen Hi-5 cell pellets infected with the C-Met IC recombinant baculovirus were thawed and gently resuspended in Buffer A (20 mM Tris pH 8.0, 10% glycerol, 1 μg/ml pepstatin, 2 μg/ml Aprotinin and leupeptin, 50 μg/ml PMSF, 50 μg/ml TLCK and 10 μM E64, 0.5 mM DTT and 1 mM Levamisole) using 3 mL of buffer per gram of cells. The suspension was Dounce homogenized after which it was centrifuged at 22500 g, 30 min., 4° C. The supernatant (cell extract) was used as starting material for purification of c-Met IC.
The supernatant was loaded onto a QsepharoseFF column (Amersham Biosciences) equilibrated with Buffer B (20 mM Tris pH 8.0, 10% glycerol) supplemented with 0.05M NaCl. […]
Inhibition of c-Met/HGF receptor and VEGFR/KDR was measured in a DELFIA™ assay (Perkin Elmer). […] Phosphorylated product was detected by incubation with Europium-labeled anti-phosphotyrosine MoAb. After washing the plates, bound MoAb was detected by time-resolved fluorescence in a Gemini SpectraMax reader (Molecular Devices).

[4] = system: U87MG; assay: In vivo solid tumor disease model, U87MG xenograft; set-up: species or system mice; settings: 15 mg/kg once daily, IP, vehicle DMSO, 10 days
Text: This test measures the capacity of compounds to inhibit solid tumor growth.
Tumor xenografts were established in the flank of female athymic CD1 mice (Charles River Inc.), by subcutaneous injection of 1×10^6U87, A431 or SKLMS cells/mouse. Once established, tumors were then serially passaged s.c. in nude mice hosts. Tumor fragments from these host animals were used in subsequent compound evaluation experiments. For compound evaluation experiments female nude mice weighing approximately 20 g were implanted s.c. by surgical implantation with tumor fragments of ˜30 mg from donor tumors. When the tumors were approximately 100 mm^3 in size (˜7-10 days following implantation), the animals were randomized a separated into treatment and control groups. Each group contained 6-8 tumor-bearing mice, each of which was ear-tagged and followed individually throughout the experiment
Mice were weighed and tumor measurements are taken by calipers three times weekly, starting on Day 1. These tumor measurements were converted to tumor volume by the well-known formula (L+W/4)^34/3π. The experiment was terminated when the control tumors reached a size of approximately 1500 mm^3. […] In addition to tumor volumes, body weight of animals were monitored twice weekly for up to 3 weeks.

T1 sequence (P35968 806-1356): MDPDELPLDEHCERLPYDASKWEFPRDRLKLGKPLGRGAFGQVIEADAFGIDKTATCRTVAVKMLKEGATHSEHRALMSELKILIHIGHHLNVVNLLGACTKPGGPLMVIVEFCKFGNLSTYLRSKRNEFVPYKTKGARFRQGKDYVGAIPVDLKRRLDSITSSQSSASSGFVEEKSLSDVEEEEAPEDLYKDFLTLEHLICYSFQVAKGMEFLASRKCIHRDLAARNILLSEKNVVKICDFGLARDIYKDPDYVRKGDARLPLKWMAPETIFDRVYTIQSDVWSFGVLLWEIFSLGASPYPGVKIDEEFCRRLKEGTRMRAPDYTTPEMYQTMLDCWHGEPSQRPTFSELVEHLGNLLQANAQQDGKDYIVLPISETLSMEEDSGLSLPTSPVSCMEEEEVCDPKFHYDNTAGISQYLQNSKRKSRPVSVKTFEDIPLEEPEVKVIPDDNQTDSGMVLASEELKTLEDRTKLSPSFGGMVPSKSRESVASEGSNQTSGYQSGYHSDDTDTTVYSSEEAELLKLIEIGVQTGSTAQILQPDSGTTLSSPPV
recombinant human c-Met/HGF receptor, sequence (P08581 1078-1337): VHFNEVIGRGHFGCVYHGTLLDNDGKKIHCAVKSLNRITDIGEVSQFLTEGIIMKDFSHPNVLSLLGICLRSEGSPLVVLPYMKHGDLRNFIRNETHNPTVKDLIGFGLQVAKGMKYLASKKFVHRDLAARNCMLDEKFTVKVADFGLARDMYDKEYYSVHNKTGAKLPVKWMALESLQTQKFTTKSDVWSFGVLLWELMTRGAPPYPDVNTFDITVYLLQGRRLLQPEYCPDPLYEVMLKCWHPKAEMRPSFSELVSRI
TPR-MET fusion protein (MNNGHOS cell line), sequence (P08581 with tags, fused parts or gaps): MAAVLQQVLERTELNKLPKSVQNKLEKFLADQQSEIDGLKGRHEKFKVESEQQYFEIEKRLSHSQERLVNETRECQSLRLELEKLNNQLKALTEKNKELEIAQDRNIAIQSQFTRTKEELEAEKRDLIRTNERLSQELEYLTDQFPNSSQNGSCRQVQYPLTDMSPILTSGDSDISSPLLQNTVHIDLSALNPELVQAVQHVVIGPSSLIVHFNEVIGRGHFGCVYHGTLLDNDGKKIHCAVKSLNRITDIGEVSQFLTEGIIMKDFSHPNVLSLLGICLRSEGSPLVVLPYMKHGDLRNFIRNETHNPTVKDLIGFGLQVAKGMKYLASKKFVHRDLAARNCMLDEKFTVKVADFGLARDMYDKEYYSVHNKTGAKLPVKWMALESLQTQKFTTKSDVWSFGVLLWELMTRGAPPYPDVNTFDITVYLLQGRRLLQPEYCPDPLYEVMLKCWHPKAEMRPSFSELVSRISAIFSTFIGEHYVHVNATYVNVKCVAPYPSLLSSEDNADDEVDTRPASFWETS

Compound | IC50 [1] | IC50 [2] | IC50 [3] | Tumor Growth Inhibition (%) [4]
O=C(Cc1ccccc1)NC(=S)Nc1ccc(Oc2ccnc3cc(C(=O)N4CCOCC4)sc23)c(F)c1 [Example 3] | 250 to 500 nM | 50 to 250 nM | 50 to 250 nM | –
Methyl 2-(1-(4-(2-(carbamoyl)thieno[3,2-b]pyridin-7-yloxy)-3-fluorophenyl)-3-(2-phenylacetyl)thioureido)propanoate [Example 11] | > 500 nM | 50 to 250 nM | 50 to 250 nM | –
CN1CCN(C(=O)c2cc3ncnc(Oc4ccc(NC(=S)NC(=O)Cc5ccccc5)cc4F)c3s2)CC1 [Example 24, 1-(4-(6-(4-N-Methylpiperazylcarbamoyl)thieno[3,2-d]pyrimidin-4-yloxy)-3-fluorophenyl)-3-(2-phenylacetyl)thiourea] | 250 to 500 nM | > 500 nM | 50 to 250 nM | –
Cn1cnnc1-c1cc2nccc(Oc3ccc(NC(=S)NC(=O)Cc4ccccc4)cc3F)c2s1 [Example 75, N-(3-Fluoro-4-(2-(4-methyl-4H-1,2,4-triazol-3-yl)thieno[3,2-b]pyridin-7-yloxy)phenylcarbamothioyl)-2-phenylacetamide] | – | – | – | d (% TGI in the range of 0-24)
